Laboratory results published in patent US20240245793A1, “PSD-95 INHIBITORS AND USES THEREOF” (priority 2021, published 2024).
Read-outs that look alike come from different tables or passages of the source. Starred links: 1 amine or outer side, 2 acyl side, 3 side chain; linkers in the order of their positions; H or OH if unused. Positions of bridges follow the written chain, without caps; N, C: chain ends. Residues, ends and D or L forms follow the SMILES beside them. Chains are numbered I, II in the order given. CO(CH2CH2O)5CH2CH2CO = O=C(CCOCCOCCOCCOCCOCCC(=O)[*:2])[*:1]

Experiments:
PDZ1-2 of PSD-95 = PDZ1-2 of PSD-95 (Homo sapiens, UniProt P78352); test: Fluorescence polarization (FP) competition assay, affinity to PDZ1-2 of PSD-95; assay type: binding; settings: mean ± SEM
Method: First, a saturation binding curve was obtained to determine KD values for the interaction between a fluorescent dimeric probe and PDZ1-2 of PSD-95. Increasing concentrations of PDZ1-2 (0.015-30 nM) were added to a constant concentration of the probe (0.5 nM). The fluorescence polarization (FP) of the sample was measured at excitation/emission wavelength of 635/670 nm and the generated FP values were fitted to a one site binding model using the software GraphPad Prism. […] The FP values were fitted to a one site competition (variable slope) model in GraphPad prism. The resulting IC50 values were converted to Ki values as described previously by Nikolovska-Coleska et al., Anal. Biochem., 2004, 332, 261).

plasmin = molecular target: T1, plasmin (Homo sapiens, UniProt P00747); test: In vitro plasmin stability assay; assay type: in vitro ADME; settings: for half-life: read-out: T1/2
T1 construct: Tissue plasminogen factor (tPA), which generates plasmin from plasminogen
Method: (§1) At selected time points during the incubation, the ligands were extracted from 80 μL of assay matrix by treatment with 80 μL of 50% acetonitrile (ACN). The samples were filtered and analysed by UPLC to determine the amount of ligand remaining. LC-MS analysis was performed to confirm ligand integrity and identify cleavage sites.

[1] = In vitro plasma stability in undiluted pooled human plasma; assay type: in vitro ADME; settings: for T1/2: 100 μM ligand, 37° C., mean ± SEM (Table 13, FIG. 10)
Method: as §1, with “the” for “80 μL of”, “adding assay matrix to 6M Urea followed by precipitation using 20% TCA in acetone. After overnight incubation, the” for “treatment with 80 μL of 50% acetonitrile (ACN). The”

[2] = dimeric ligands fused to L-TAT and L-Arg9, n ≥ 3 (Table 5, FIG. 2)

PDZ1-2 of PSD-95, sequence (P78352 61-249 limits assumed): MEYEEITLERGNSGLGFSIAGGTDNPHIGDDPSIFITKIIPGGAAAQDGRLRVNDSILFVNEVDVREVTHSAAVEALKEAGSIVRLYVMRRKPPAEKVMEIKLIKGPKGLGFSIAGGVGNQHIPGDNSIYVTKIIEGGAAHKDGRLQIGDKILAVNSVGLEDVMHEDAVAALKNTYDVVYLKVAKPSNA
T1 sequence (P00747 581-810 limits assumed, species assumed): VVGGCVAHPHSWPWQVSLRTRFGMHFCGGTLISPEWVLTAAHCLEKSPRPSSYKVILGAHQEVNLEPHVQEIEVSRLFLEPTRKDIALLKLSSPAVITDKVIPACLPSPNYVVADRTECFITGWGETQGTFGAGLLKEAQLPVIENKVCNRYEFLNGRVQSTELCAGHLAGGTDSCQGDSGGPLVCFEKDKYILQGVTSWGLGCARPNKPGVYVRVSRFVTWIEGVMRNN
T1 sequence (P00747 97-580 partner limits assumed, species assumed): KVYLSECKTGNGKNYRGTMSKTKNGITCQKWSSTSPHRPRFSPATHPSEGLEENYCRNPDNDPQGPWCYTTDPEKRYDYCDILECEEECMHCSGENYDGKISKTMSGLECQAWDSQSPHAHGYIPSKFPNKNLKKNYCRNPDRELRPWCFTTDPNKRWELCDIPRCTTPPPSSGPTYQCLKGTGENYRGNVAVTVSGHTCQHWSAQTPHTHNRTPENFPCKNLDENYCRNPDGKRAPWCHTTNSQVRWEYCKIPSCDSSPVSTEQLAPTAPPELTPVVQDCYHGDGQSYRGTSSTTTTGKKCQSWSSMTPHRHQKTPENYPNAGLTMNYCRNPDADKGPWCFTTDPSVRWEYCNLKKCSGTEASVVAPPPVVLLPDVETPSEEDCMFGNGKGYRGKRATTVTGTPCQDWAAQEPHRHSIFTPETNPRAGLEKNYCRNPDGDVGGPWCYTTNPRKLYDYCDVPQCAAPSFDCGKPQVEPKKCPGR

Row | SMILES | Ki (PDZ1-2 of PSD-95; [2]) | half-life (plasmin; isolated enzyme plasmin) | other results
1 | CC(=O)N[C@@H](Cc1ccc(O)cc1)C(=O)NCC(=O)N[C@@H](CCCNC(=N)N)C(=O)N[C@@H](CCCCN)C(=O)N[C@@H](CCCCN)C(=O)N[C@@H](CCCNC(=N)N)C(=O)N[C@@H](CCCNC(=N)N)C(=O)N[C@@H](CCC(N)=O)C(=O)N[C@@H](CCCNC(=N)N)C(=O)N[C@@H](CCCNC(=N)N)C(=O)N[C@@H](CCCNC(=N)N)C(=O)N(CCOCCOCCC(=O)N[C@@H](CCCCN)C(=O)N[C@@H](CCC(=O)O)C(=O)N[C@H](C(=O)N[C@@H](CC(C)C)C(=O)N[C@H](C(=O)O)C(C)C)[C@@H](C)O)CCOCCOCCC(=O)N[C@@H](CCCCN)C(=O)N[C@@H](CCC(=O)O)C(=O)N[C@H](C(=O)N[C@@H](CC(C)C)C(=O)N[C@H](C(=O)O)C(C)C)[C@@H](C)O [Compound 11] | 5.4 ± 0.9 nM | 5.77 ± 1.75 h | –
2 | CC(=O)N[C@@H](Cc1ccc(O)cc1)C(=O)NCC(=O)N[C@@H](CCCNC(=N)N)C(=O)N[C@@H](CCCCN)C(=O)N[C@@H](CCCCN)C(=O)N[C@@H](CCCNC(=N)N)C(=O)N[C@@H](CCCNC(=N)N)C(=O)N[C@@H](CCC(N)=O)C(=O)N[C@@H](CCCNC(=N)N)C(=O)N[C@@H](CCCNC(=N)N)C(=O)N[C@@H](CCCNC(=N)N)C(=O)N(CCOCCOCCC(=O)N[C@@H](CCCCN)C(=O)N[C@@H](CCC(=O)O)C(=O)N[C@H](C(=O)N[C@@H](CCCNC(=N)N)C(=O)N[C@H](C(=O)O)C(C)C)[C@@H](C)O)CCOCCOCCC(=O)N[C@@H](CCCCN)C(=O)N[C@@H](CCC(=O)O)C(=O)N[C@H](C(=O)N[C@@H](CCCNC(=N)N)C(=O)N[C@H](C(=O)O)C(C)C)[C@@H](C)O [Compound 17] | 6.6 ± 0.6 nM | 6.42 ± 2.17 h | –
3 | CC(=O)N[C@@H](CCCNC(=N)N)C(=O)N[C@@H](CCCNC(=N)N)C(=O)N[C@@H](CCCNC(=N)N)C(=O)N[C@@H](CCCNC(=N)N)C(=O)N[C@@H](CCCNC(=N)N)C(=O)N[C@@H](CCCNC(=N)N)C(=O)N[C@@H](CCCNC(=N)N)C(=O)N[C@@H](CCCNC(=N)N)C(=O)N[C@@H](CCCNC(=N)N)C(=O)N(CCOCCOCCC(=O)N[C@@H](CCCCN)C(=O)N[C@@H](CCC(=O)O)C(=O)N[C@H](C(=O)N[C@@H](CC(C)C)C(=O)N[C@H](C(=O)O)C(C)C)[C@@H](C)O)CCOCCOCCC(=O)N[C@@H](CCCCN)C(=O)N[C@@H](CCC(=O)O)C(=O)N[C@H](C(=O)N[C@@H](CC(C)C)C(=O)N[C@H](C(=O)O)C(C)C)[C@@H](C)O [Compound 23] | – | – | T1/2 [1]: 24 ± 0 h; half-life at 100 μM (plasmin; isolated enzyme plasmin): 43.6 ± 4.6 h
4 | CC(=O)N[C@@H](CCCNC(=N)N)C(=O)N[C@@H](CCCNC(=N)N)C(=O)N[C@@H](CCCNC(=N)N)C(=O)N[C@@H](CCCNC(=N)N)C(=O)N[C@@H](CCCNC(=N)N)C(=O)N[C@@H](CCCNC(=N)N)C(=O)N[C@@H](CCCNC(=N)N)C(=O)N(CCOCCOCCC(=O)N[C@@H](CCCCN)C(=O)N[C@@H](CCC(=O)O)C(=O)N[C@H](C(=O)N[C@@H](CC(C)C)C(=O)N[C@H](C(=O)O)C(C)C)[C@@H](C)O)CCOCCOCCC(=O)N[C@@H](CCCCN)C(=O)N[C@@H](CCC(=O)O)C(=O)N[C@H](C(=O)N[C@@H](CC(C)C)C(=O)N[C@H](C(=O)O)C(C)C)[C@@H](C)O [Compound 67] | – | – | T1/2 [1]: 24 ± 0 h
5 | CC[C@H](C)[C@H](NC(=O)CCOCCOCCN(CCOCCOCCC(=O)N[C@H](C(=O)N[C@@H](CCC(=O)O)C(=O)N[C@H](C(=O)N[C@@H](CC(=O)O)C(=O)N[C@H](C(=O)O)C(C)C)[C@@H](C)O)[C@@H](C)CC)C(=O)[C@H](CCCNC(=N)N)NC(=O)[C@H](CCCNC(=N)N)NC(=O)[C@H](CCCNC(=N)N)NC(=O)[C@H](CCCNC(=N)N)NC(=O)[C@H](CCCNC(=N)N)NC(=O)[C@H](CCCNC(=N)N)NC(=O)[C@H](CCCNC(=N)N)NC(=O)[C@H](CCCNC(=N)N)NC(=O)[C@H](CCCNC(=N)N)NC(C)=O)C(=O)N[C@@H](CCC(=O)O)C(=O)N[C@H](C(=O)N[C@@H](CC(=O)O)C(=O)N[C@H](C(=O)O)C(C)C)[C@@H](C)O [Compound 35] | – | – | T1/2 [1]: 24 ± 0 h; half-life at 100 μM (plasmin): 24.9 ± 1.9 h; half-life at 100 μM (plasmin; isolated enzyme plasmin): 24.9 ± 1.9 h
6 | CC(=O)N[C@@H](Cc1ccc(O)cc1)C(=O)NCC(=O)N[C@@H](CCCNC(=N)N)C(=O)N[C@@H](CCCCN)C(=O)N[C@@H](CCCCN)C(=O)N[C@@H](CCCNC(=N)N)C(=O)N[C@@H](CCCNC(=N)N)C(=O)N[C@@H](CCC(N)=O)C(=O)N[C@@H](CCCNC(=N)N)C(=O)N[C@@H](CCCNC(=N)N)C(=O)N[C@@H](CCCNC(=N)N)C(=O)N(CCOCCOCCC(=O)N[C@@H](CCCCN)C(=O)N[C@@H](CCC(=O)O)C(=O)N[C@H](C(=O)N[C@H](C(=O)N[C@H](C(=O)O)C(C)C)[C@@H](C)O)[C@@H](C)O)CCOCCOCCC(=O)N[C@@H](CCCCN)C(=O)N[C@@H](CCC(=O)O)C(=O)N[C@H](C(=O)N[C@H](C(=O)N[C@H](C(=O)O)C(C)C)[C@@H](C)O)[C@@H](C)O [Compound 13] | 6.5 ± 0.7 nM | 9.5 ± 3 h | –
7 | CC[C@H](C)[C@H](NC(=O)CCOCCOCCN(CCOCCOCCC(=O)N[C@H](C(=O)N[C@@H](CO)C(=O)N[C@H](C(=O)N[C@@H](CC(=O)O)C(=O)N[C@H](C(=O)O)C(C)C)[C@@H](C)O)[C@@H](C)CC)C(=O)[C@H](CCCNC(=N)N)NC(=O)[C@H](CCCNC(=N)N)NC(=O)[C@H](CCCNC(=N)N)NC(=O)[C@H](CCC(N)=O)NC(=O)[C@H](CCCNC(=N)N)NC(=O)[C@H](CCCNC(=N)N)NC(=O)[C@H](CCCCN)NC(=O)[C@H](CCCCN)NC(=O)[C@H](CCCNC(=N)N)NC(=O)CNC(=O)[C@H](Cc1ccc(O)cc1)NC(C)=O)C(=O)N[C@@H](CO)C(=O)N[C@H](C(=O)N[C@@H](CC(=O)O)C(=O)N[C@H](C(=O)O)C(C)C)[C@@H](C)O [Compound 19] | 36.1 ± 1.8 nM | 8.9 ± 0.667 h | –
8 | CC(=O)N[C@@H](Cc1ccc(O)cc1)C(=O)NCC(=O)N[C@@H](CCCNC(=N)N)C(=O)N[C@@H](CCCCN)C(=O)N[C@@H](CCCCN)C(=O)N[C@@H](CCCNC(=N)N)C(=O)N[C@@H](CCCNC(=N)N)C(=O)N[C@@H](CCC(N)=O)C(=O)N[C@@H](CCCNC(=N)N)C(=O)N[C@@H](CCCNC(=N)N)C(=O)N[C@@H](CCCNC(=N)N)C(=O)N(CCOCCOCCC(=O)N[C@H](C(=O)N[C@@H](CCC(=O)O)C(=O)N[C@H](C(=O)N[C@H](C(=O)N[C@H](C(=O)O)C(C)C)C(C)C)[C@@H](C)O)C(C)C)CCOCCOCCC(=O)N[C@H](C(=O)N[C@@H](CCC(=O)O)C(=O)N[C@H](C(=O)N[C@H](C(=O)N[C@H](C(=O)O)C(C)C)C(C)C)[C@@H](C)O)C(C)C [Compound 21] | 15.8 ± 1.6 nM | 8.87 ± 0.683 h | –
9 | CC(=O)N[C@@H](CCCNC(=N)N)C(=O)N[C@@H](CCCNC(=N)N)C(=O)N[C@@H](CCCNC(=N)N)C(=O)N[C@@H](CCCNC(=N)N)C(=O)N[C@@H](CCCNC(=N)N)C(=O)N(CCOCCOCCC(=O)N[C@@H](CCCCN)C(=O)N[C@@H](CCC(=O)O)C(=O)N[C@H](C(=O)N[C@@H](CC(C)C)C(=O)N[C@H](C(=O)O)C(C)C)[C@@H](C)O)CCOCCOCCC(=O)N[C@@H](CCCCN)C(=O)N[C@@H](CCC(=O)O)C(=O)N[C@H](C(=O)N[C@@H](CC(C)C)C(=O)N[C@H](C(=O)O)C(C)C)[C@@H](C)O [Compound 71] | – | – | half-life at 100 μM ([1]; human): 21.1 ± 2.3 h
10 | CC(C)[C@H](NC(=O)[C@@H](NC(=O)[C@@H](NC(=O)[C@H](CCC(=O)O)NC(=O)[C@H](CCCCN)NC(=O)CCOCCOCCOCCOCCOCCC(=O)N[C@@H](CCCCN)C(=O)N[C@@H](CCC(=O)O)C(=O)N[C@H](C(=O)N[C@H](C(=O)N[C@H](C(=O)O)C(C)C)C(C)C)[C@@H](C)O)[C@@H](C)O)C(C)C)C(=O)O [Compound 4, OPEG4-(KETVV)2] (I: KETVV-OH / II: KETVV-OH; linker I:N-II:N via CO(CH2CH2O)5CH2CH2CO; C-terminus assumed) | – | – | Ki (PDZ1-2 of PSD-95; OPEG4 dimers without CPP, n ≥ 3 (Table 4, FIG. 1)): 15.8 ± 1.2 nM
11 | CC(=O)N[C@@H](Cc1ccc(O)cc1)C(=O)NCC(=O)N[C@@H](CCCNC(=N)N)C(=O)N[C@@H](CCCCN)C(=O)N[C@@H](CCCCN)C(=O)N[C@@H](CCCNC(=N)N)C(=O)N[C@@H](CCCNC(=N)N)C(=O)N[C@@H](CCC(N)=O)C(=O)N[C@@H](CCCNC(=N)N)C(=O)N[C@@H](CCCNC(=N)N)C(=O)N[C@@H](CCCNC(=N)N)C(=O)N(CCOCCOCCC(=O)N[C@@H](CCCCN)C(=O)N[C@@H](CCC(=O)O)C(=O)N[C@H](C(=O)N[C@H](C(=O)N[C@H](C(=O)O)C(C)C)C(C)C)[C@@H](C)O)CCOCCOCCC(=O)N[C@@H](CCCCN)C(=O)N[C@@H](CCC(=O)O)C(=O)N[C@H](C(=O)N[C@H](C(=O)N[C@H](C(=O)O)C(C)C)C(C)C)[C@@H](C)O [Compound 15] | 2.1 ± 0.2 nM | 6.42 ± 2.17 h | –
